According to PubChem BioAssay (NCI):
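Protocol summary: plate cells (96-well), add compound at 5 concentrations, incubate 48 h, interpolate endpoints linearly. TGI marks complete inhibition of growth.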

Legend:
Assay in all cases: inhibition of tumour cell growth, NCI panel, 48 h
OVCAR-4 ovarian = tested on: OVCAR-4 ovarian
MDA-MB-435 = tested on: MDA-MB-435
U251 CNS = tested on: U251 CNS
HL-60(TB) leukemia = tested on: HL-60(TB) leukemia
HT29 colon = tested on: HT29 colon
LOX IMVI melanoma = tested on: LOX IMVI melanoma
OVCAR-8 ovarian = tested on: OVCAR-8 ovarian
SNB-19 CNS = tested on: SNB-19 CNS
MDA-N = tested on: MDA-N
NCI-H522 lung = tested on: NCI-H522 lung

`Brc1ccc(/C(N=N/C(=N\Sc2ccccc2)c2ccc(Br)cc2)=N/Sc2ccccc2)cc1` showed a TGI (OVCAR-4 ovarian) of over 100 µM, a TGI (MDA-MB-435) of over 100 µM and a TGI (U251 CNS) of over 100 µM. The TGI (HL-60(TB) leukemia) was over 100 µM, the TGI (HT29 colon) was over 100 µM and the TGI (LOX IMVI melanoma) was over 100 µM. It also gave a TGI (OVCAR-8 ovarian) of over 100 µM, a TGI (SNB-19 CNS) of over 100 µM and a TGI (MDA-N) of over 100 µM. The TGI (NCI-H522 lung) was over 100 µM.
Work on `COC(=O)Cc1c2n(c3ccccc13)C(=O)N1c3ccccc3C(CC(=O)OC)C21` (stereo not given) yielded a TGI (OVCAR-4 ovarian) of 57.1 µM, a TGI (MDA-MB-435) of over 100 µM and a TGI (U251 CNS) of over 100 µM. The TGI (HL-60(TB) leukemia) was over 100 µM, the TGI (HT29 colon) was over 100 µM and the TGI (LOX IMVI melanoma) was over 100 µM. The TGI (OVCAR-8 ovarian) was over 100 µM, the TGI (SNB-19 CNS) was 49.8 µM and the TGI (MDA-N) was over 100 µM. The TGI (NCI-H522 lung) was over 100 µM.
`Brc1ccc2[nH]cc(-c3csc(-c4c[nH]c5ccc(Br)cc45)n3)c2c1` gave a TGI (OVCAR-4 ovarian) of 7.59 µM, a TGI (MDA-MB-435) of 5.79 µM and a TGI (U251 CNS) of 3.61 µM. The TGI (HL-60(TB) leukemia) was 12.7 µM, the TGI (HT29 colon) was 3.16 µM and the TGI (LOX IMVI melanoma) was 3.21 µM. It also gave a TGI (OVCAR-8 ovarian) of 7.22 µM, a TGI (SNB-19 CNS) of 7.61 µM and a TGI (MDA-N) of 5.95 µM. The TGI (NCI-H522 lung) was 3.39 µM.
`O=C(O)C12C3C4(C(=O)O)C1C1(C(=O)O)C2C3(C(=O)O)C41` (stereo not given) showed a TGI (OVCAR-4 ovarian) of over 100 µM, a TGI (MDA-MB-435) of over 100 µM and a TGI (U251 CNS) of over 100 µM. The TGI (HL-60(TB) leukemia) was over 100 µM, the TGI (HT29 colon) was over 100 µM and the TGI (LOX IMVI melanoma) was over 100 µM. It also gave a TGI (OVCAR-8 ovarian) of over 100 µM, a TGI (SNB-19 CNS) of over 100 µM and a TGI (MDA-N) of over 100 µM. The TGI (NCI-H522 lung) was over 100 µM.
`O=C(O)CCSc1ncnc2nc[nH]c12` showed a TGI (OVCAR-4 ovarian) of over 100 µM, a TGI (MDA-MB-435) of over 100 µM and a TGI (U251 CNS) of over 100 µM. For the same compound, the TGI (HL-60(TB) leukemia) was over 100 µM, the TGI (HT29 colon) was over 100 µM and the TGI (LOX IMVI melanoma) was over 100 µM. For the same compound, the TGI (OVCAR-8 ovarian) was over 100 µM, the TGI (SNB-19 CNS) was over 100 µM and the TGI (MDA-N) was over 100 µM. The TGI (NCI-H522 lung) was over 100 µM.
`O=C1C=CC(=O)c2c(O)c(N3CCN(c4ncccn4)CC3)c(Cl)c(O)c21` showed a TGI (OVCAR-4 ovarian) of 3.69 µM, a TGI (MDA-MB-435) of 3.29 µM and a TGI (U251 CNS) of 12 µM. The TGI (HL-60(TB) leukemia) was 0.766 µM, the TGI (HT29 colon) was 6.73 µM and the TGI (LOX IMVI melanoma) was 3.55 µM. It also gave a TGI (OVCAR-8 ovarian) of 6.37 µM, a TGI (SNB-19 CNS) of 18 µM and a TGI (MDA-N) of 3.75 µM. The TGI (NCI-H522 lung) was 4.42 µM.
Work on `O=C1CCC(CCc2nc3ccccc3[nH]2)(c2ccccc2)C(=O)N1` (stereo not given) yielded a TGI (OVCAR-4 ovarian) of over 100 µM, a TGI (MDA-MB-435) of over 100 µM and a TGI (U251 CNS) of over 100 µM. It also gave a TGI (HL-60(TB) leukemia) of over 100 µM, a TGI (HT29 colon) of over 100 µM and a TGI (LOX IMVI melanoma) of over 100 µM. It also gave a TGI (OVCAR-8 ovarian) of over 100 µM, a TGI (SNB-19 CNS) of over 100 µM and a TGI (MDA-N) of over 100 µM. For the same compound, the TGI (NCI-H522 lung) was over 100 µM.
Compound `CCOC(=O)OC1(c2ccccc2)CCN(C)CC1` has a TGI (OVCAR-4 ovarian) of over 100 µM, a TGI (MDA-MB-435) of over 100 µM and a TGI (U251 CNS) of over 100 µM. It also gave a TGI (HL-60(TB) leukemia) of over 100 µM, a TGI (HT29 colon) of over 100 µM and a TGI (LOX IMVI melanoma) of over 100 µM. It also gave a TGI (OVCAR-8 ovarian) of over 100 µM, a TGI (SNB-19 CNS) of over 100 µM and a TGI (MDA-N) of over 100 µM. The TGI (NCI-H522 lung) was over 100 µM.
`Cc1nc2ccccc2n1Cc1ccc(NC(=S)Nc2ccccc2)cc1` was tested, and the TGI (OVCAR-4 ovarian) was over 100 µM, the TGI (MDA-MB-435) was over 100 µM and the TGI (U251 CNS) was over 100 µM. It also gave a TGI (HL-60(TB) leukemia) of over 100 µM, a TGI (HT29 colon) of over 100 µM and a TGI (LOX IMVI melanoma) of over 100 µM. It also gave a TGI (OVCAR-8 ovarian) of over 100 µM, a TGI (SNB-19 CNS) of over 100 µM and a TGI (MDA-N) of over 100 µM. It also gave a TGI (NCI-H522 lung) of over 100 µM.
Work on `O=C1c2cccnc2C(=O)c2c1nc1ccccc1c2-c1ccc2c3c(nc4ccccc42)C(=O)c2cccnc2-c13` yielded a TGI (OVCAR-4 ovarian) of 14 µM, a TGI (MDA-MB-435) of 5.58 µM and a TGI (U251 CNS) of 9.01 µM. For the same compound, the TGI (HL-60(TB) leukemia) was 5.42 µM, the TGI (HT29 colon) was 7.57 µM and the TGI (LOX IMVI melanoma) was 9.12 µM. For the same compound, the TGI (OVCAR-8 ovarian) was 2.59 µM, the TGI (SNB-19 CNS) was 7.92 µM and the TGI (MDA-N) was 8.82 µM. It also gave a TGI (NCI-H522 lung) of 4.58 µM.
`CN(C)CN1C(=O)/C(=N\n2c(-c3ccncc3)n[nH]c2=S)c2ccccc21` showed a TGI (OVCAR-4 ovarian) of 45.2 µM, a TGI (MDA-MB-435) of 30.2 µM and a TGI (U251 CNS) of over 100 µM. It also gave a TGI (HL-60(TB) leukemia) of 37 µM, a TGI (HT29 colon) of 61.5 µM and a TGI (LOX IMVI melanoma) of 62.2 µM. For the same compound, the TGI (OVCAR-8 ovarian) was 65.2 µM, the TGI (SNB-19 CNS) was over 100 µM and the TGI (MDA-N) was 31.8 µM. The TGI (NCI-H522 lung) was 45.1 µM.
